Experiments:
Type in all cases: in vivo
[1] = system: Corn (cultivar: PIONEER 31N27); test: Test Example 8: corn seedling spraying, low-temperature stress, fresh weight of above-ground part; conditions: for Average fresh weight of above-ground part: low-temperature stress 2±2° C. 5 days, non-treated 0.79 g
Procedure: Corn seeds (cultivar: PIONEER 31N27) were sown in the culture soil (AISAI) in plastic pots (55 mm in diameter×58 mm in height) and grown for a week under the following conditions to obtain corn seedlings: temperature, 20 to 25° C.; humidity, 50 to 75%; illuminance, about 5,000 lux; day length, 16 hours.
A flowable formulation of the compound (1b) was obtained by adding 120 mg of a mixture of white carbon and a polyoxyethylene alkyl ether sulfate ammonium salt (weight ratio of 1:1) and 300 μl of water to 0.5 mg of compound (1b), followed by fine grinding by a wet grinding method. This flowable formulation was diluted with 50 ml of water, to which RINO (manufactured by NIHON NOHYAKU) was added as a sticker to 5,000-fold dilution, whereby a spray solution was obtained. A sufficient amount of the spray solution was applied to the corn seedlings by using an automatic spraying machine. As a control, a flowable formulation without compound (1b) was prepared and then sprayed to the non-treated group.
Subsequently, the corn seedlings treated with the spray solution were placed in a phytotron under the following conditions in order to expose the plants to low-temperature stress for 5 days. • Conditions: “temperature, 2±2° C.; lighting hour, 16 hours; • illuminance, about 5,000 lux; humidity, 35 to 80%”
The plants were then grown for another 4 days under the following conditions: temperature, 25 to 28° C.; humidity, 50 to 75%, illuminance, about 5,000 lux; day length, 16 hours. Then the fresh weight of the above-ground part of the plants was measured. The experiment was performed in four replications for each treatment condition and the average weight per individual was calculated.

[2] = system: Basil (cultivar: Sweet Basil; Takii); test: Test Example 10: basil seedling spraying, low-temperature stress, fresh weight and damage score; conditions: for Fresh weight of above-ground part: low-temperature stress 3.0° C., non-treated 0.34 g; for Damage score: score 0 (completely killed) to 100 (survived without any damage), survived leaf area, non-treated 17
Procedure: Basil seeds (cultivar: Sweet Basil; Takii) were sown in the culture soil (AISAI) in plastic pots (55 mm in diameter×58 mm in height) and grown for 24 days under the following conditions to obtain a basil seedling per pot: temperature, 27° C.; humidity, 50 to 75%; illuminance, about 6,000 lux; day length, 16 hours.
Compound (1b). was dissolved in dimethylsulfoxide (DMSO) to obtain a DMSO solution of compound (lb) at a 1,000-fold concentration relative to the test concentration. This DMSO solution of compound (1b) was 1,000-fold diluted with water. Then Triton X-100 was added as a surfactant to a final concentration of 0.1%. The spray solution thus prepared was applied in a sufficient amount (15 ml per 3 pots) by means of a handspray.
As a control, a spray solution without compound (ib) was prepared and then sprayed to the non-treated group. The plants were further grown for 1 day under the following conditions: temperature, 27° C.; humidity, 50 to 75%; illuminance, about 6,000 lux; day length, 16 hours.
Subsequently, the basil seedlings were placed in a phytotron under the following conditions, to expose the plants to low-temperature stress. • Conditions: “temperature, 3.0° C.; illuminance, 800 lux; • humidity, 50 to 80%”
The plants were further grown for another 2 days under the following conditions: temperature, 27° C.; humidity, 50 to 75%, illuminance, about 6,000 lux; day length, 16 hours.
The percentage of the leaf area of the portions of true leaves of the basil seedlings which survived without being damaged was scored as follows: completely killed with 0% of the survived leaf area to the total leaf area: 0; survived without any damage with 100% of the survived leaf area to the total leaf: 100; and scored from 0 to 100 by increment of 1 by visual observation. The scores of three plants were averaged to determine the damage score. The aerial part of the basil seedlings was removed to measure the fresh weight of the above-ground part. The average weight of three individuals was recorded as the fresh weight of the above-ground part.

[3] = system: Arabidopsis thaliana (ecotype Columbia); test: Test Example 7: Arabidopsis seedlings in medium, high-temperature stress, leaf area; conditions: 30 ppm in medium; high-temperature stress 45° C. 60 minutes; 8 days after; non-treated 3.4 mm^2
Procedure: In a Petri dish, a hydroponic sponge piece (1 cm×1 cm×0.2 cm) was immersed with a half concentration of Murashige-and-Skoog medium (MS culture medium: containing 2.5 mM MES, 1% sucrose and 0.1% Gamborg vitamin solution G1019 (Sigma-Aldrich)). On this sponge piece, 4 to 5 seeds of Arabidopsis thaliana (ecotype Columbia) were aseptically sown. After the low temperature treatment (at 4° C. for 2 to 4 days), the plants were grown for 6 days under the following conditions to obtain Arabidopsis seedlings: temperature, 23° C.; humidity, 45%; illuminance, 3,500 lux; day length, 16 hours. Each 0.5 ml of a half concentration of MS medium was dispensed into a 24-well plate (SUMILON MS-80240; manufactured by Sumitomo Bakelite), onto which […] of a 1,000-fold concentrated DMSO solution of compound (1b) was added to prepare medium containing compound (1b) at a concentration of 30 ppm. After thinning the Arabidopsis seedlings to 2 plants per sponge, the seedlings were transplanted in the compound (1b)-containing medium in each well of the 24-well plate, together with the sponge piece and then grown overnight. […] Each well was photographed with a digital camera and the green area in the photograph was measured using image analysis software Win ROOF (manufactured by MITANI CORPORATION), thereby quantifying the leaf areas of the plants.

## CNC(=O)C(OC)c1ccccc1COc1cc(C)ccc1C (racemic) [Compound (1b), N-methyl-2-[2-(2,5-dimethylphenoxy)methyl]phenyl-2-methoxyacetamide]
[1]; plants exposed to low-temperature stress, concentration range of 10 ppm to 100 ppm
  fresh weight of the above-ground part as compared with the non-treated group: increased
[1]; spray 10 ppm
  Average fresh weight of above-ground part: 0.89 g
[1]; spray 30 ppm
  Average fresh weight of above-ground part: 0.94 g
[1]; spray 100 ppm
  Average fresh weight of above-ground part: 0.90 g
[2]; spray 10 ppm
  Fresh weight of above-ground part: 0.62 g
  Damage score: 30
[2]; spray 30 ppm
  Fresh weight of above-ground part: 0.72 g
  Damage score: 38
[2]; spray 100 ppm
  Fresh weight of above-ground part: 0.92 g
  Damage score: 81
[2]; spray 250 ppm
  Fresh weight of above-ground part: 0.94 g
  Damage score: 68
[3]
  Mean leaf area of plants: 12.6 mm^2
